Reference: ChEMBL document CHEMBL1909046, “DrugMatrix in vitro pharmacology data”

Legend:
[1] = target: 5-hydroxytryptamine receptor 4 (Cavia porcellus, UniProt O70528); type: cell membranes, Dunkin-Hartley, Striatum, Membrane; further: in other assays of this panel Not Active means under 50% inhibition at 10 µM
[2] = DRUGMATRIX: GABAA, Chloride Channel, TBOB radioligand binding (ligand: [3H] TBOB); type: cell membranes, Rattus norvegicus, Wistar, Cerebral cortex, Membrane; conditions: Not Active = under 50% inhibition at 10 µM
[3] = DRUGMATRIX: Glutamate, NMDA, Phencyclidine radioligand binding (ligand: [3H] TCP); type: cell membranes, Rattus norvegicus, Wistar, Cerebral cortex, Membrane; conditions: Not Active = under 50% inhibition at 10 µM
Melanocortin receptor 3 = Melanocortin receptor 3 (Homo sapiens, UniProt P41968); type: cell membranes, Membrane; conditions: hek293; further: in other assays of this panel Not Active means under 50% inhibition at 10 µM
Melanocortin receptor 3, sequence (P41968 whole entry): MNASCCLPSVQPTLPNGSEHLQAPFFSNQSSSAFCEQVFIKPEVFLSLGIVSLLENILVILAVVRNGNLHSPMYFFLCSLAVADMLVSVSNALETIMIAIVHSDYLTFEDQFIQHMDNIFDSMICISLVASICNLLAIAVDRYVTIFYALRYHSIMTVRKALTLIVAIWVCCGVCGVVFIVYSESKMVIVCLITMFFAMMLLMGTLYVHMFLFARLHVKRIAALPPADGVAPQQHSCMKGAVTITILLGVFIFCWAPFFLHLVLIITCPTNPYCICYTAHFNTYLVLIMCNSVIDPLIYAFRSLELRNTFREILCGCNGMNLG

[4] = DRUGMATRIX: Potassium Channel [KATP] radioligand binding (ligand: [3H] Glyburide); type: cell membranes, Membrane; conditions: hit-t15; Not Active = under 50% inhibition at 10 µM
Caspase-1 = target: T1, Caspase-1 (Homo sapiens, UniProt P29466); design: species or system Escherichia coli;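 further: Caspase-1 enzyme inhibition assay with a peptide substrate; in other assays of this panel Not Active means under 50% inhibition at 10 µM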
T1 sequence (P29466 whole entry): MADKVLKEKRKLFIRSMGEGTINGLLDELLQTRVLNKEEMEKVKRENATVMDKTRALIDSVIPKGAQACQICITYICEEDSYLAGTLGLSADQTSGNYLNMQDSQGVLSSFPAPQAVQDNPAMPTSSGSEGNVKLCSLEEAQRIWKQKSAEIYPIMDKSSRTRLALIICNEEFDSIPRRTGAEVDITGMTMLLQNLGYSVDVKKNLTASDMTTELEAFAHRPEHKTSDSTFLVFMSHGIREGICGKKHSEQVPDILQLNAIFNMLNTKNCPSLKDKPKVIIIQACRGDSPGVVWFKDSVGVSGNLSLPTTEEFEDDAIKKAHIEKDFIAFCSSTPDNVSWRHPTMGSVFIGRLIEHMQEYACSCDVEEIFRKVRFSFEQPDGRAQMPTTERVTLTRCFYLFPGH

5-hydroxytryptamine receptor 4, sequence (O70528 whole entry): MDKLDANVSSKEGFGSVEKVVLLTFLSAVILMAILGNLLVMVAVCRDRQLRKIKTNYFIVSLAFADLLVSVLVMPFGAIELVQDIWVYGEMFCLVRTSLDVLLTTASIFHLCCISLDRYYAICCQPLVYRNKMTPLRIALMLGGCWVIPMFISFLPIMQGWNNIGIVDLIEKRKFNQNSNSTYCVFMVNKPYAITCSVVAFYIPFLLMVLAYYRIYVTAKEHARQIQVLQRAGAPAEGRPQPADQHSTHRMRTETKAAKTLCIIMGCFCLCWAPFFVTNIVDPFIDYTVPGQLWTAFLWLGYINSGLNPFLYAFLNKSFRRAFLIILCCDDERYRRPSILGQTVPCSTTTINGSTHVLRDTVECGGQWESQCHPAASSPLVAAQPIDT

C[C@]12CC[C@@H]3c4ccc(OC(=O)c5ccccc5)cc4CC[C@H]3[C@@H]1CC[C@@H]2O [ESTRADIOL BENZOATE]
Not Active: IC50 [1] | IC50 [2] | Ki [2] | IC50 [3] | Ki [3] | IC50 (Melanocortin receptor 3) | IC50 [4] | Ki [4] | IC50 (Caspase-1)

C[C@]12CC[C@@H]3c4ccc(O)cc4CC[C@H]3[C@@H]1CC[C@@H]2O [ESTRADIOL]
Not Active: IC50 [1] | IC50 [2] | Ki [2] | IC50 [3] | Ki [3] | IC50 (Melanocortin receptor 3) | IC50 [4] | Ki [4] | IC50 (Caspase-1)

CC[C@@H](CO)NCCN[C@@H](CC)CO [ETHAMBUTOL]
Not Active: IC50 [1] | IC50 [2] | Ki [2] | IC50 [3] | Ki [3] | IC50 (Melanocortin receptor 3) | IC50 [4] | Ki [4] | IC50 (Caspase-1)

CC1(C)O[C@@H]2C[C@H]3[C@@H]4C[C@H](F)C5=CC(=O)C=C[C@]5(C)[C@H]4[C@@H](O)C[C@]3(C)[C@]2(C(=O)CO)O1 [FLUNISOLIDE]
Not Active: IC50 [1] | IC50 [2] | Ki [2] | IC50 [3] | Ki [3] | IC50 (Melanocortin receptor 3) | IC50 [4] | Ki [4] | IC50 (Caspase-1)

CC1(C)O[C@@H]2C[C@H]3[C@@H]4C[C@H](F)C5=CC(=O)C=C[C@]5(C)[C@@]4(F)[C@@H](O)C[C@]3(C)[C@]2(C(=O)CO)O1 [FLUOCINOLONE ACETONIDE]
Not Active: IC50 [1] | IC50 [2] | Ki [2] | IC50 [3] | Ki [3] | IC50 (Melanocortin receptor 3) | IC50 [4] | Ki [4] | IC50 (Caspase-1)

CC1(C)O[C@@H]2C[C@H]3[C@@H]4C[C@H](F)C5=CC(=O)CC[C@]5(C)[C@H]4[C@@H](O)C[C@]3(C)[C@]2(C(=O)CO)O1 [FLURANDRENOLIDE]
Not Active: IC50 [1] | IC50 [2] | Ki [2] | IC50 [3] | Ki [3] | IC50 (Melanocortin receptor 3) | IC50 [4] | Ki [4] | IC50 (Caspase-1)

CN(C)c1ccc(C(=C2C=CC(=[N+](C)C)C=C2)c2ccc(N(C)C)cc2)cc1.[Cl-] [GENTIAN VIOLET]
Not Active: IC50 [1] | IC50 [2] | Ki [2] | IC50 [3] | Ki [3] | IC50 (Melanocortin receptor 3) | IC50 [4] | Ki [4] | IC50 (Caspase-1)

Cc1ccc(S(=O)(=O)NC(=O)NN2CC3CCCC3C2)cc1 (centres undefined) [GLICLAZIDE]
Not Active: IC50 [1] | IC50 [2] | Ki [2] | IC50 [3] | Ki [3] | IC50 (Melanocortin receptor 3) | IC50 [4] | Ki [4] | IC50 (Caspase-1)

NC(=O)NO [HYDROXYUREA]
Not Active: IC50 [1] | IC50 [2] | Ki [2] | IC50 [3] | Ki [3] | IC50 (Melanocortin receptor 3) | IC50 [4] | Ki [4] | IC50 (Caspase-1)

CC(C)Cc1ccc(C(C)C(=O)O)cc1 (centres undefined) [IBUPROFEN]
Not Active: IC50 [1] | IC50 [2] | Ki [2] | IC50 [3] | Ki [3] | IC50 (Melanocortin receptor 3) | IC50 [4] | Ki [4] | IC50 (Caspase-1)

COc1ccc2c(c1)c(CC(=O)O)c(C)n2C(=O)c1ccc(Cl)cc1 [INDOMETHACIN]
Not Active: IC50 [1] | IC50 [2] | Ki [2] | IC50 [3] | Ki [3] | IC50 (Melanocortin receptor 3) | IC50 [4] | Ki [4] | IC50 (Caspase-1)

CCc1c2c(nc3ccc(OC(=O)N4CCC(N5CCCCC5)CC4)cc13)-c1cc3c(c(=O)n1C2)COC(=O)[C@]3(O)CC [IRINOTECAN]
Not Active: IC50 [1] | IC50 [2] | Ki [2] | IC50 [3] | Ki [3] | IC50 (Melanocortin receptor 3) | IC50 [4] | Ki [4] | IC50 (Caspase-1)

CC(C(=O)O)c1cccc(C(=O)c2ccccc2)c1 (centres undefined) [KETOPROFEN]
Not Active: IC50 [1] | IC50 [2] | Ki [2] | IC50 [3] | Ki [3] | IC50 (Melanocortin receptor 3) | IC50 [4] | Ki [4] | IC50 (Caspase-1)

Nc1ccn([C@@H]2CS[C@H](CO)O2)c(=O)n1 [LAMIVUDINE]
Not Active: IC50 [1] | IC50 [2] | Ki [2] | IC50 [3] | Ki [3] | IC50 (Melanocortin receptor 3) | IC50 [4] | Ki [4] | IC50 (Caspase-1)

O=S(=O)([O-])CCS.[Na+] [MESNA]
Not Active: IC50 [1] | IC50 [2] | Ki [2] | IC50 [3] | Ki [3] | IC50 (Melanocortin receptor 3) | IC50 [4] | Ki [4] | IC50 (Caspase-1)

C#C[C@]1(O)CC[C@H]2[C@@H]3CCc4cc(OC)ccc4[C@H]3CC[C@@]21C [MESTRANOL]
Not Active: IC50 [1] | IC50 [2] | Ki [2] | IC50 [3] | Ki [3] | IC50 (Melanocortin receptor 3) | IC50 [4] | Ki [4] | IC50 (Caspase-1)

CC(=O)Nc1cccc(O)c1 [METACETAMOL]
Not Active: IC50 [1] | IC50 [2] | Ki [2] | IC50 [3] | Ki [3] | IC50 (Melanocortin receptor 3) | IC50 [4] | Ki [4] | IC50 (Caspase-1)

Cc1ncc([N+](=O)[O-])n1CCO [METRONIDAZOLE]
Not Active: IC50 [1] | IC50 [2] | Ki [2] | IC50 [3] | Ki [3] | IC50 (Melanocortin receptor 3) | IC50 [4] | Ki [4] | IC50 (Caspase-1)

CC(C)(C(=O)c1cccnc1)c1cccnc1 [METYRAPONE]
Not Active: IC50 [1] | IC50 [2] | Ki [2] | IC50 [3] | Ki [3] | IC50 (Melanocortin receptor 3) | IC50 [4] | Ki [4] | IC50 (Caspase-1)

Oc1ccc(OCc2ccccc2)cc1 [MONOBENZONE]
Not Active: IC50 [1] | IC50 [2] | Ki [2] | IC50 [3] | Ki [3] | IC50 (Melanocortin receptor 3) | IC50 [4] | Ki [4] | IC50 (Caspase-1)

CC(C)(Oc1ccc(C2CCCc3ccccc32)cc1)C(=O)O (centres undefined) [NAFENOPIN]
Not Active: IC50 [1] | IC50 [2] | Ki [2] | IC50 [3] | Ki [3] | IC50 (Melanocortin receptor 3) | IC50 [4] | Ki [4] | IC50 (Caspase-1)
